Assay results as given in patent US10508105B2, “Indazole compounds as mGluR4 allosteric potentiators, compositions, and methods of treating neurological dysfunction” (Vanderbilt University, priority 2017, dated 2019).

Key:
[1] = target: human mGlu4 (Homo sapiens (Human), UniProt Q14833); assay: mGlu4 PAM assay in human mGlu4/Gqi5 cells with ~EC20 glutamate (Hamamatsu FDSS); assay type: cell-based; conditions: ~EC20 concentration of glutamate, read-out: mGlu4 PAM EC50
Experimental: The disclosed compounds and compositions can be evaluated for their ability to act as a potentiatior of metabotropic glutamate receptor activity, in particular mGluR4 activity, by any suitable known methodology known in the art. For example, Chinese Hamster Ovary (CHO) cells transfected with human mGluR4 or HEK cells co-transfected with rat mGluR4 and the G-protein regulated Inwardly Rectifying Potassium channel (GIRK) were plated in clear bottom assay plates for assay in a Hamamatsu FDSS Fluorometric Plate Reader. The cells were loaded with either a Ca2+-sensitive fluorescent dye or the thallium responsive dye and the plates were washed and placed into a suitable kinetic plate reader. For human mGluR4 assays, a fluorescence baseline was established for 3-5 seconds, the disclosed compounds were then added to the cells, and the response in cells was measured. Approximately two and a half minutes later, a concentration of mGluR4 orthosteric agonist (e.g. glutamate, L-AP4, or L-SOP) eliciting approximately 20% (EC20) of the maximal agonist response was added to the cells, and the response was measured. Two minutes later, a concentration of mGluR4 agonist (e.g. glutamate, L-AP4, or L-SOP) eliciting 80% (EC80) of the maximal agonist response was added to the cells, and the response was measured. For rat mGluR4/GIRK experiments, a baseline was established for approximately five seconds, disclosed compounds were added, and either an EC20 or EC80 concentration of agonist was added approximately two and one half minutes later.
The above described assay operated in two modes. In the first mode, a range of concentrations of the disclosed compounds are added to cells, followed by a single fixed concentration of agonist. If the compound acts as a potentiatior, an EC50 value for potentiation and a maximum extent of potentiation by the compound at this concentration of agonist is determined by non-linear curve fitting. If the compound acts as an antagonist, an IC50 value is determined by non-linear curve fitting. In the second mode, several fixed concentrations of the disclosed compounds are added to various wells on a plate, followed by a range in concentrations of agonist for each concentration of disclosed compound. The EC50 values for the agonist at each concentration of compound are determined by non-linear curve fitting. A decrease in the EC50 value of the agonist with increasing concentrations of the sample compound (a leftward shift of the agonist concentration-response curve) is an indication of the degree of mGluR4 potentiation at a given concentration of the sample compound. A decrease in the maximal response of the agonist with increasing concentrations of the sample compounds, with or without a rightward shift in agonist potency, is an indication of the degree of antagonism at mGluR4. The second mode also indicates whether the sample compounds also affect the maximum response to mGluR4 to agonists.

[2] = rat CNS penetration (Kp); assay type: in vivo; conditions: brain/plasma
[3] = test system: haloperidol-induced catalepsy; assay: haloperidol-induced catalepsy (standard PD model); assay type: in vivo, rodent; conditions: oral doses after haloperidol; relative to control mGlu4 PAM VU506
From the text: B) Efficacy of example 131 in the standard PD model of haloperidol-induced catalepsy, relative to a control mGlu4 PAM, VU506. […] Also see a) Engers, D. W.; Gogliotti, R. D.; Cheung, Y-Y.; Salovich, J. M.; Garcia-Barrantes, P. M.; Daniels, J. S.; Morrison, R.; Jones, C. K.; Blobaum, A. L.; Macor, J. E.; Bronson, J. J.; Conn, P. J.; Lindsley, C. W.; Niswender, C. M.; Hopkins, C. R. ‘Discovery, synthesis and pre-clinical characterization of N-(3-chloro-4-fluorophenyl)-1H-pyrazolo[4,3-b]pyridin-3-amine (VU0418506), a novel positive allosteric modulator of the metabotropic glutamate receptor 4 (mGlu4)’ ACS Chem. Neurosci. 2016, 7, 1192-1200; b) Niswender, C. M.; Jones, C. K.; Bubser, M.; Gray, A. T.; Blobaum, A. L.; Engers, D. W.; Altman, M. K.; O'Brien, D. E.; Rook, J. M.; Rodriguez, A. L.; Loch, M. T.; Daniels, J. S.; Lindsley, C. W.; Hopkins, C. R.; Conn, P. J. ‘Development of VU0418506, a positive allosteric modulator that differentiates metabotropic glutamate receptor 4 (mGlu4) homomeric receptors from mGlu2/4 heteromers’ ACS Chem. Neurosci., 2016, 7, 1201-1211.

Sequence of human mGlu4 (Q14833 33-912): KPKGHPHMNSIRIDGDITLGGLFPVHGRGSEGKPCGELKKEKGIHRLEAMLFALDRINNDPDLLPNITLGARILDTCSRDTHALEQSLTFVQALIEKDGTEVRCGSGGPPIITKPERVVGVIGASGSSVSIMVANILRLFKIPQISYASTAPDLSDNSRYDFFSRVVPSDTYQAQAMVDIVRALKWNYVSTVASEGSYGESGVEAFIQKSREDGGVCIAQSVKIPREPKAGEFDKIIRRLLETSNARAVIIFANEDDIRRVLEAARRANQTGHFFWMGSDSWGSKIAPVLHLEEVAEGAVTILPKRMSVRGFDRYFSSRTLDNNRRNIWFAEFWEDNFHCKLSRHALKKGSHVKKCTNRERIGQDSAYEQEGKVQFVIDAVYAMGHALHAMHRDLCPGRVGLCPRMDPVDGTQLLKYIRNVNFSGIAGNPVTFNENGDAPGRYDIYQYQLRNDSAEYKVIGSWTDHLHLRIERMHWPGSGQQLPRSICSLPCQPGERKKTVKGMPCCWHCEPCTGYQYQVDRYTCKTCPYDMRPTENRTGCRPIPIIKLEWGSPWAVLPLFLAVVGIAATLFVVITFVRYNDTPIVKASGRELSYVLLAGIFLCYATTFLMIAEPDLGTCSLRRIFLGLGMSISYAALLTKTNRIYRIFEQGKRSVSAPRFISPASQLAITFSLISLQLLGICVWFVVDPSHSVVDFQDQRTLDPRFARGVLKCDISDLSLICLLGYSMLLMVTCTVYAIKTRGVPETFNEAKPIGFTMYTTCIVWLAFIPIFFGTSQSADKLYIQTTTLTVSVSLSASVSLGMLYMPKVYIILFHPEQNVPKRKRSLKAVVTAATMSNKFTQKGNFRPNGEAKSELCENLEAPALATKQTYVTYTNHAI

EC50 [1]: 0.0501 µM
Kp [2]: 1.6
SMILES: Cn1nc(OC[C@H]2COCCO2)c2ccc(NC(=O)c3ncccc3N)cc21 [Compound 131]
reversal of haloperidol-induced catalepsy [3]: reverse catalepsy in a dose-dependent manner
